Converted amounts (≈) assume the structure as drawn. One block for each compound: values may come before it.
Columns and labels:
[1] = tested on: HMC3 (human microglia) cell line; test: pHrodo-myelin phagocytosis/cell viability high content imaging assay: phagocytosis signal; format: cell-based
Summary of the method: (§1)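 Phagocytosis and cell viability were measured together by high content imaging about 22 hours after pHrodo-myelin addition. Three measurements were extracted from the images. Intensity increase and decrease were taken as early and later apoptosis, respectively.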

[2] = tested on: BV2 (mouse microglia) cell line; test: as above; format: cell-based
Summary of the method: as §1

[3] = Kinetic solubility in aqueous buffer pH 7.4 by total chemiluminescent nitrogen determination (Analiza); details: aqueous buffer, pH 7.4, aqueous buffer, kinetic from dmso stock
[4] = tested on: HMC3 (human microglia) cell line; test: pHrodo-myelin phagocytosis/cell viability high content imaging assay: viability (cell count, nuclear area, nuclear intensity)
Summary of the method: (§2)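 Viability was read by high-content imaging as cell count per well and nuclear intensity per cell, in murine BV2 and human HMC3 microglial lines. Cells received a single 10 μM compound dose for 48 h, including 20 h with pHrodo-myelin. Duplicate means are expressed as % of untreated control.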

[5] = tested on: BV2 (mouse microglia) cell line; test: as above
Summary of the method: as §2

[6] = HMC3, 10 μM, cell count <70% control
[7] = BV2, 10 μM, cell count <70% control

SMILES: Cc1cc(Nc2ncc(Cl)c(Nc3ccccc3S(=O)(=O)C(C)C)n2)c(OC(C)C)cc1C1CCNCC1 [Ceritinib]
- Inhibition of human microglial phagocytosis at 10 μM (<70% control) ([1]; HMC3, 10 μM): Y (The compound was found to inhibit phagocytosis (response threshold: <70% control) when human immortalized microglial cells were dosed at 10 μM (Y: yes))
- Inhibition of mouse microglial phagocytosis at 10 μM (<70% control) ([2]; BV2, 10 μM): Y (The compound was found to inhibit phagocytosis (response threshold: <70% control) when murine immortalized microglial cells were dosed at 10 μM (Y: yes))
- solubility kinetic [3]: 25.1 µM (≈ 14 µg/mL)
- Human microglial cytotoxicity at 10 μM (<70% control) ([4]; HMC3, 10 μM): Y (The compound was found to be cytotoxic (cell count threshold: <70% control) when human immortalized microglial cells were dosed at 10 μM (Y: yes))
- Mouse microglial cytotoxicity at 10 μM (<70% control) ([5]; BV2, 10 μM): Y (The compound was found to be cytotoxic (cell count threshold: <70% control) when murine immortalized microglial cells were dosed at 10 μM (Y: yes))

SMILES: CC1(COc2ccc3c(c2)ncn3-c2ccc3cccc(N4CCC(N)CC4)c3n2)COC1 [Crenolanib]
- Inhibition of human microglial phagocytosis at 10 μM (<70% control) ([1]; 10 μM, HMC3): Y (The compound was found to inhibit phagocytosis (response threshold: <70% control) when human immortalized microglial cells were dosed at 10 μM (Y: yes))
- Inhibition of mouse microglial phagocytosis at 10 μM (<70% control) ([2]; 10 μM, BV2): Y (The compound was found to inhibit phagocytosis (response threshold: <70% control) when murine immortalized microglial cells were dosed at 10 μM (Y: yes))
- solubility kinetic [3]: 115 µM (≈ 51.1 µg/mL)
- Human microglial cytotoxicity at 10 μM (<70% control) ([4]; 10 μM, HMC3): Y (The compound was found to be cytotoxic (cell count threshold: <70% control) when human immortalized microglial cells were dosed at 10 μM (Y: yes))
- Mouse microglial cytotoxicity at 10 μM (<70% control) ([5]; 10 μM, BV2): Y (The compound was found to be cytotoxic (cell count threshold: <70% control) when murine immortalized microglial cells were dosed at 10 μM (Y: yes))

SMILES: COc1cccc2c(NCc3ccccc3)nc(-n3c(N)nc4ccccc43)nc12 [ML 240]
- Inhibition of human microglial phagocytosis at 10 μM (<70% control) ([1]; HMC3, 10 μM): Y (The compound was found to inhibit phagocytosis (response threshold: <70% control) when human immortalized microglial cells were dosed at 10 μM (Y: yes))
- Inhibition of mouse microglial phagocytosis at 10 μM (<70% control) ([2]; BV2, 10 μM): Y (The compound was found to inhibit phagocytosis (response threshold: <70% control) when murine immortalized microglial cells were dosed at 10 μM (Y: yes))
- solubility kinetic [3]: < 0.4 µM
- Human microglial cytotoxicity at 10 μM (<70% control) [4, 6]: Y (The compound was found to be cytotoxic (cell count threshold: <70% control) when human immortalized microglial cells were dosed at 10 μM (Y: yes))
- Mouse microglial cytotoxicity at 10 μM (<70% control) [5, 7]: Y (The compound was found to be cytotoxic (cell count threshold: <70% control) when murine immortalized microglial cells were dosed at 10 μM (Y: yes))

SMILES: C=CC(=O)Nc1cc2c(Nc3ccc(F)c(Cl)c3)ncnc2cc1OCCCN1CCOCC1 [Canertinib]
- Inhibition of human microglial phagocytosis at 10 μM (<70% control) ([1]; HMC3, 10 μM): Y (The compound was found to inhibit phagocytosis (response threshold: <70% control) when human immortalized microglial cells were dosed at 10 μM (Y: yes))
- Inhibition of mouse microglial phagocytosis at 10 μM (<70% control) ([2]; BV2, 10 μM): Y (The compound was found to inhibit phagocytosis (response threshold: <70% control) when murine immortalized microglial cells were dosed at 10 μM (Y: yes))
- solubility kinetic [3]: 11 µM (≈ 5.35 µg/mL)
- Human microglial cytotoxicity at 10 μM (<70% control) ([4]; HMC3, 10 μM): Y (The compound was found to be cytotoxic (cell count threshold: <70% control) when human immortalized microglial cells were dosed at 10 μM (Y: yes))
- Mouse microglial cytotoxicity at 10 μM (<70% control) ([5]; BV2, 10 μM): Y (The compound was found to be cytotoxic (cell count threshold: <70% control) when murine immortalized microglial cells were dosed at 10 μM (Y: yes))

SMILES: CN(C)C/C=C/C(=O)Nc1cc2c(Nc3ccc(F)c(Cl)c3)ncnc2cc1O[C@H]1CCOC1 [Afatinib]
- Inhibition of human microglial phagocytosis at 10 μM (<70% control) ([1]; HMC3, 10 μM): Y (The compound was found to inhibit phagocytosis (response threshold: <70% control) when human immortalized microglial cells were dosed at 10 μM (Y: yes))
- Inhibition of mouse microglial phagocytosis at 10 μM (<70% control) ([2]; BV2, 10 μM): Y (The compound was found to inhibit phagocytosis (response threshold: <70% control) when murine immortalized microglial cells were dosed at 10 μM (Y: yes))
- solubility kinetic [3]: 117 µM (≈ 56.7 µg/mL)
- Mouse microglial cytotoxicity at 10 μM (<70% control) ([5]; BV2, 10 μM): Y (The compound was found to be cytotoxic (cell count threshold: <70% control) when murine immortalized microglial cells were dosed at 10 μM (Y: yes))

SMILES: Cn1nccc1Nc1nccc(-c2ccn([C@H](CO)c3ccc(Cl)c(F)c3)c(=O)c2)n1 [Ravoxertinib (GDC0994)]
- Inhibition of human microglial phagocytosis at 10 μM (<70% control) ([1]; 10 μM, HMC3): Y (The compound was found to inhibit phagocytosis (response threshold: <70% control) when human immortalized microglial cells were dosed at 10 μM (Y: yes))
- Inhibition of mouse microglial phagocytosis at 10 μM (<70% control) ([2]; 10 μM, BV2): Y (The compound was found to inhibit phagocytosis (response threshold: <70% control) when murine immortalized microglial cells were dosed at 10 μM (Y: yes))
- solubility kinetic [3]: 3.8 µM (≈ 1.68 µg/mL)
- Human microglial cytotoxicity at 10 μM (<70% control) ([4]; 10 μM, HMC3): Y (The compound was found to be cytotoxic (cell count threshold: <70% control) when human immortalized microglial cells were dosed at 10 μM (Y: yes))
- Mouse microglial cytotoxicity at 10 μM (<70% control) ([5]; 10 μM, BV2): Y (The compound was found to be cytotoxic (cell count threshold: <70% control) when murine immortalized microglial cells were dosed at 10 μM (Y: yes))

SMILES: CSc1ccc2c(c1)c(CCN)c(C)n2Cc1ccc(Cl)cc1Cl.Cl [K149]
- Inhibition of human microglial phagocytosis at 10 μM (<70% control) ([1]; 10 μM, HMC3): Y (The compound was found to inhibit phagocytosis (response threshold: <70% control) when human immortalized microglial cells were dosed at 10 μM (Y: yes))
- Inhibition of mouse microglial phagocytosis at 10 μM (<70% control) ([2]; 10 μM, BV2): Y (The compound was found to inhibit phagocytosis (response threshold: <70% control) when murine immortalized microglial cells were dosed at 10 μM (Y: yes))
- solubility kinetic [3]: 5.7 µM
- Human microglial cytotoxicity at 10 μM (<70% control) ([4]; 10 μM, HMC3): Y (The compound was found to be cytotoxic (cell count threshold: <70% control) when human immortalized microglial cells were dosed at 10 μM (Y: yes))
- Mouse microglial cytotoxicity at 10 μM (<70% control) ([5]; 10 μM, BV2): Y (The compound was found to be cytotoxic (cell count threshold: <70% control) when murine immortalized microglial cells were dosed at 10 μM (Y: yes))

SMILES: CC(=O)NCC(=O)N1[C@@H]2CC[C@H]1c1ccc(Nc3ncc(C(F)(F)F)c(NC4CCC4)n3)cc12 [PF-03814735 (MolPort-023-219-160)]
- Inhibition of human microglial phagocytosis at 10 μM (<70% control) ([1]; 10 μM, HMC3): Y (The compound was found to inhibit phagocytosis (response threshold: <70% control) when human immortalized microglial cells were dosed at 10 μM (Y: yes))
- Inhibition of mouse microglial phagocytosis at 10 μM (<70% control) ([2]; 10 μM, BV2): Y (The compound was found to inhibit phagocytosis (response threshold: <70% control) when murine immortalized microglial cells were dosed at 10 μM (Y: yes))
- solubility kinetic [3]: 159 µM (≈ 75.6 µg/mL)
- Human microglial cytotoxicity at 10 μM (<70% control) ([4]; 10 μM, HMC3): Y (The compound was found to be cytotoxic (cell count threshold: <70% control) when human immortalized microglial cells were dosed at 10 μM (Y: yes))
- Mouse microglial cytotoxicity at 10 μM (<70% control) ([5]; 10 μM, BV2): Y (The compound was found to be cytotoxic (cell count threshold: <70% control) when murine immortalized microglial cells were dosed at 10 μM (Y: yes))

The next lines start with results.

- solubility kinetic [3]: 6.2 µM (≈ 3.64 µg/mL)
SMILES: O=C(Nc1ccc2[nH]nc(-c3ccncc3)c2c1)[C@@H]1CCN(CC(=O)N2CCN(c3ccc(-c4ncccn4)cc3)CC2)C1 [SCH772984]
- Inhibition of human microglial phagocytosis at 10 μM (<70% control) ([1]; 10 μM, HMC3): Y (The compound was found to inhibit phagocytosis (response threshold: <70% control) when human immortalized microglial cells were dosed at 10 μM (Y: yes))
- Stimulation of mouse microglial phagocytosis at 10 μM (>150% control) ([2]; 10 μM, BV2): Y (The compound was found to stimulate phagocytosis (response threshold: >150% control) when murine immortalized microglial cells were dosed at 10 μM (Y: yes))
- Mouse microglial cytotoxicity at 10 μM (<70% control) ([5]; 10 μM, BV2): Y (The compound was found to be cytotoxic (cell count threshold: <70% control) when murine immortalized microglial cells were dosed at 10 μM (Y: yes))

- solubility kinetic [3]: 4.8 µM (≈ 3.32 µg/mL)
SMILES: CS[C@@]1(C(=O)Nc2ccc3[nH]nc(-c4ccc(OC(C)C)nc4)c3c2)CCN(CC(=O)N2CC=C(c3ccc(-c4ncn(C)n4)cc3)CC2)C1 [MK-8353]
- Inhibition of human microglial phagocytosis at 10 μM (<70% control) ([1]; 10 μM, HMC3): Y (The compound was found to inhibit phagocytosis (response threshold: <70% control) when human immortalized microglial cells were dosed at 10 μM (Y: yes))
- Stimulation of mouse microglial phagocytosis at 10 μM (>150% control) ([2]; 10 μM, BV2): Y (The compound was found to stimulate phagocytosis (response threshold: >150% control) when murine immortalized microglial cells were dosed at 10 μM (Y: yes))
- Mouse microglial cytotoxicity at 10 μM (<70% control) ([5]; 10 μM, BV2): Y (The compound was found to be cytotoxic (cell count threshold: <70% control) when murine immortalized microglial cells were dosed at 10 μM (Y: yes))

- solubility kinetic [3]: 3.9 µM (≈ 1.8 µg/mL)
SMILES: Fc1ccc(C(CCCNCC2CCc3[nH]c4ccc(F)cc4c3C2)c2ccc(F)cc2)cc1 (stereo not shown) [MSC1094308]
- Inhibition of human microglial phagocytosis at 10 μM (<70% control) ([1]; HMC3, 10 μM): Y (The compound was found to inhibit phagocytosis (response threshold: <70% control) when human immortalized microglial cells were dosed at 10 μM (Y: yes))
- Inhibition of mouse microglial phagocytosis at 10 μM (<70% control) ([2]; BV2, 10 μM): Y (The compound was found to inhibit phagocytosis (response threshold: <70% control) when murine immortalized microglial cells were dosed at 10 μM (Y: yes))
- Human microglial cytotoxicity at 10 μM (<70% control) [4, 6]: Y (The compound was found to be cytotoxic (cell count threshold: <70% control) when human immortalized microglial cells were dosed at 10 μM (Y: yes))
- Mouse microglial cytotoxicity at 10 μM (<70% control) [5, 7]: Y (The compound was found to be cytotoxic (cell count threshold: <70% control) when murine immortalized microglial cells were dosed at 10 μM (Y: yes))

From publication PMC9019904, “AD Informer Set: Chemical tools to facilitate Alzheimer's disease drug discovery” (Alzheimer's & Dementia : Translational Research & Clinical …, 2022)
